{
  "source": "patent US20170281779A1",
  "about": "“METHOD OF TREATING PATIENTS NON-RESPONSIVE TO PALONOSETRON” (Heron Therapeutics, Inc., priority 2013, published 2017)",
  "key": {"[1]": {"test_system": "chemotherapy-induced nausea and vomiting (CINV)", "assay": "Clinical study of complete response (absence of emetic episodes) in chemotherapy patients; Cycle 1 palonosetron, Cycle 2 granisetron semi-solid delivery vehicle", "type": "in vivo, human", "conditions": "Cycle 1, palonosetron 0.25 mg intravenous", "protocol": "As described in Example 2, the patients in the study were undergoing either a moderately emetogenic chemotherapy regimen or a highly emetogenic chemotherapy regimen. In a first cycle of the study, the patients were treated with (i) 5 mg of granisetron in a semi-solid drug delivery vehicle, administered subcutaneously; (ii) 10 mg of granisetron in a semi-solid drug delivery vehicle, administered subcutaneously; or (iii) palonosetron, 0.25 mg administered intravenously. Patients who received palonosetron in Cycle 1 and remained on study were re-randomized for treatment with 5 mg or 10 mg of granisetron, administered as comprised within a semi-solid drug delivery vehicle via subcutaneous injection of 250 mg vehicle or 500 mg vehicle.\nIn Cycle 1 of the study, 1395 patients receiving single doses of a moderately emetogenic chemotherapy (MEC) regimen or a highly emetogenic chemotherapy (HEC) regimen were randomized for treatment with one of three regimens: a semi-solid drug delivery vehicle comprising granisetron, administered subcutaneously to provide (i) 5 mg granisetron or (ii) 10 mg granisetron (via subcutaneous injection of 250 mg or 500 mg vehicle, respectively) or (iii) palonosetron, 0.25 mg intravenous. The palonosetron dose administered was the recommended dose of palonosetron (ALOXI®) for treatment of chemotherapy-induced nausea and vomiting in adults. Palonosetron, when administered intravenously at the above-dose, is indicated in adults for the prevention of both acute and delayed vomiting associated with initial and repeated courses of moderately emetogenic chemotherapy, and acute nausea and vomiting associated with initial and repeat courses of highly emetogenic chemotherapy.\nPatients who received palonosetron in Cycle 1 and remained in the study were re-randomized for treatment in Cycle 2 with 5 mg or 10 mg granisetron administered subcutaneously as 250 mg or 500 mg, respectively, of the semi-solid drug delivery vehicle. […]"}, "[2]": {"conditions": "cited from earlier work"}, "5-HT3 receptors": {"target": "T1, 5-HT3 receptors (Homo sapiens, UniProt P46098)", "T1 sequence (P46098 24-478)": "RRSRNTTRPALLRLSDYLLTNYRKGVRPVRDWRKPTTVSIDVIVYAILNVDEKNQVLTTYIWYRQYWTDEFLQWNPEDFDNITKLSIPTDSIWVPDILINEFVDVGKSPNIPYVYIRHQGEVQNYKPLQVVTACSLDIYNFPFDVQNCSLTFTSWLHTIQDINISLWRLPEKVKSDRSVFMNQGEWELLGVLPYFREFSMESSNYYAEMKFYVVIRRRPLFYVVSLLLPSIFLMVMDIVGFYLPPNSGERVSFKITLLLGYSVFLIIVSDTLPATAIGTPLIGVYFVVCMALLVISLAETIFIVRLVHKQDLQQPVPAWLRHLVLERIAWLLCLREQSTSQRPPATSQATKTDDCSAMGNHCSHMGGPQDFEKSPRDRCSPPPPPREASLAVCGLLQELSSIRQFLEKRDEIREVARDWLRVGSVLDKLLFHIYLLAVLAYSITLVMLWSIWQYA", "conditions": "compared to first generation 5-HT3 receptor antagonists dolasetron, granisetron and ondansetron; cited from earlier work"}, "[3]": {"conditions": "compared to first generation 5-HT3 receptor antagonists dolasetron, granisetron and ondansetron"}},
  "data": [
    {"smiles": "O=C1c2cccc3c2[C@H](CCC3)CN1[C@@H]1CN2CCC1CC2", "note": "[palonosetron]", "values": [
      {"measurement": "overall (0-120 hour) failures", "setting": "[1]; HEC patients (94/238)", "result": 39.5, "unit": "%"},
      {"measurement": "overall (0-120 hour) failures", "setting": "[1]; MEC patients (100/208)", "result": 48.1, "unit": "%"},
      {"measurement": "overall (0-120 hour) failures", "setting": "[1]; all 446 patients (MEC + HEC)", "result": 43.5, "unit": "%"},
      {"measurement": "safety profile", "setting": "[2]; as reported in the literature (Eisenberg et al. 2004)", "result": "excellent safety profile"},
      {"measurement": "half-life", "setting": "[2]; [3]", "result": "significantly longer half-life"},
      {"measurement": "potency", "setting": "[2]; [3]", "result": "higher potency"},
      {"measurement": "binding affinity to the 5-HT3 receptors", "setting": "5-HT3 receptors", "result": "higher binding affinity"}
    ]}
  ]
}
